Assays:
MIS12C^Dsn1ΔN = molecular target: T1, MIS12C^Dsn1ΔN (Homo sapiens, UniProt Q6P1K2+Q96IY1+Q9H081+Q9H410, DEL6-113); experiment: ITC, peptide titrated into MIS12C with deleted Dsn1^N (residues 6–113); type: binding; settings: ITC Kd ratio, MIS12C^Dsn1ΔN vs MIS12C
T1 construct: all proteins, apart from Knl1, were full length; TEV-cleavable double Strep II (DS) tag (C); made in house; host or cells: High-5 insect cells (baculovirus; Nsl1-Dsn1 virus plus Mis12-Pmf1 virus)
Description: (§3) ITC was performed using an Auto-iTC200 instrument (Malvern Instruments) at 20 °C. Before the ITC runs, all components were dialyzed for at least 16 h against ITC buffer: 20 mM HEPES (pH 7.5), 100 mM NaCl and 1 mM TCEP at 4 °C. For each titration run, 370 µl of protein sample was loaded in the calorimeter cell. […] After the initial injection was discarded, the changes in the amount of heat released were integrated over the entire titration and fitted to a single-site binding model using the MicroCal PEAQ-ITC Analysis Software 1.0.0.1258 (Malvern Instruments). […] Titrations were performed in either duplicate or triplicate.
(§4) The Kd and stoichiometries (n) values are averages between at least two experiments. The reported error values are calculated standard deviations.

MIS12C (WT) = molecular target: T2, MIS12C (WT) (Homo sapiens, UniProt Q6P1K2+Q96IY1+Q9H081+Q9H410); experiment: Isothermal titration calorimetry (ITC), peptide titrated into wild-type MIS12C; type: binding; settings: 20 °C, pH 7.5, wild-type MIS12C
T2 construct: TEV-cleavable double Strep II (DS) tag (C); made in house; host or cells: High-5 insect cells (baculovirus)
Description: as §3, §4

Wild-type MIS12C = experiment: Analytical size-exclusion chromatography (SEC), CENP-C^1–71 binding to wild-type MIS12C; design: species or system Homo sapiens; settings: 4 µM CENP-C^1–71-MBP + 4 µM wild-type MIS12C; 20 mM HEPES pH 7.8, 150 mM NaCl, 0.5 mM TCEP; Superdex S200; SDS-PAGE; at least two repeats
Description: (§1) Four micromolar of CENP-C^1–71-MBP was mixed with 4 µM of either wild-type MIS12C or three mutants (MIS12C^ΔN-Dsn1, MIS12^Dsn1-W96A R97A R98A, MIS12C^Dsn1-S100D S109D) in a buffer of 20 mM HEPES (pH 7.8), 150 mM NaCl and 0.5 mM TCEP, and 50 µl of the mixture was loaded onto a Superdex S200 size-exclusion column (Cytiva).
(§2) Coloured by pLDDT score. e AlphaFold2 Multimer prediction of the K. lactis MIS12C coloured by subunit with insert highlighting conservation of the auto-inhibitory Dsn1^N mechanism. Source data

[1] = test system: MIS12^Dsn1-W96A R97A R98A; experiment: Analytical SEC, CENP-C^1–71 binding to MIS12C with WRR linchpin substitutions; design: species or system Homo sapiens; settings: 4 µM CENP-C^1–71-MBP + 4 µM MIS12^Dsn1-W96A R97A R98A; 20 mM HEPES pH 7.8, 150 mM NaCl, 0.5 mM TCEP; Superdex S200; SDS-PAGE; at least two repeats
Description: as §1, §2

T2 sequence (Q9H081 whole entry): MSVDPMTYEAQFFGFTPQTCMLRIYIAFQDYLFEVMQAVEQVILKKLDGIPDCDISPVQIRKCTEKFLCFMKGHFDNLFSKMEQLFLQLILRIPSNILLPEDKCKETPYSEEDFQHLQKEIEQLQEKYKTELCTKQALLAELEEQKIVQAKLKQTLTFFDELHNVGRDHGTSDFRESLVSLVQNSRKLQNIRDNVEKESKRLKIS
T2 sequence (Q6P1K2 whole entry): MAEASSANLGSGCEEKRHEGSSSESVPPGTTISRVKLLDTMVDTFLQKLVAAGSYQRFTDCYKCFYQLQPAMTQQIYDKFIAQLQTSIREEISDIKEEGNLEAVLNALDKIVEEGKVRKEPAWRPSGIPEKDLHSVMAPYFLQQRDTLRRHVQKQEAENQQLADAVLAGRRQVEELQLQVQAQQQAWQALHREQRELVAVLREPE
T2 sequence (Q9H410 whole entry): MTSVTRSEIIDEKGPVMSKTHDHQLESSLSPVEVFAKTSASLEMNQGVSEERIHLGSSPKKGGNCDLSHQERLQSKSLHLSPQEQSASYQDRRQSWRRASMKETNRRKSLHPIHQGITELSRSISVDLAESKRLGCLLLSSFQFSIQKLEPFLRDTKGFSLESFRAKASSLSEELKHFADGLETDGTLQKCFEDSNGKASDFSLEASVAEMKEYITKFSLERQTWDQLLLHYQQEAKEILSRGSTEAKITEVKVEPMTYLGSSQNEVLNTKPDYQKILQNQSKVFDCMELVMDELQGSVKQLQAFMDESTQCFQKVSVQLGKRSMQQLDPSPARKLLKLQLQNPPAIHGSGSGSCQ
T2 sequence (Q96IY1 whole entry): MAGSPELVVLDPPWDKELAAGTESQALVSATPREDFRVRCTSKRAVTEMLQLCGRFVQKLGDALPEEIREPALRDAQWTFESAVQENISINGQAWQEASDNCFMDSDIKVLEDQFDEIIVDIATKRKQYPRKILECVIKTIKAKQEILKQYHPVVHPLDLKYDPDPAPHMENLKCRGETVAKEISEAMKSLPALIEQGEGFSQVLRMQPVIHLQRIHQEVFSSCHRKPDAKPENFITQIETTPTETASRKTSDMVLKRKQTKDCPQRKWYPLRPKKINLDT
T1 sequence (Q9H081 whole entry, stated change not applied, the tested form may be a part): as the sequence (Q9H081 whole entry) above
T1 sequence (Q6P1K2 whole entry, stated change not applied, the tested form may be a part): as the sequence (Q6P1K2 whole entry) above
T1 sequence (Q9H410 with tags, fused parts or gaps DEL6-113): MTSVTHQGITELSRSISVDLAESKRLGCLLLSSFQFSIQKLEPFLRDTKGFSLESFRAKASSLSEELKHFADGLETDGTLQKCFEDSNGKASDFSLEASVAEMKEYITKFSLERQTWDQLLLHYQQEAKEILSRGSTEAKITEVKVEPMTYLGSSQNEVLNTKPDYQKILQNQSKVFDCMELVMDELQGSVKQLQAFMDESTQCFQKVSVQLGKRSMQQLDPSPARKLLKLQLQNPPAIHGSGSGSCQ
T1 sequence (Q96IY1 whole entry, stated change not applied, the tested form may be a part): as the sequence (Q96IY1 whole entry) above

Row | Substance | enhancement of Dsn1^92–113 binding on deleting Dsn1^N, relative to MIS12C (WT) (MIS12C^Dsn1ΔN) [fold] | affinity of Dsn1^92–113 for MIS12C, in words (MIS12C (WT)) | CENP-C^1–71 binding by SEC, in words (Wild-type MIS12C) | CENP-C^1–71 binding by SEC, in words [1]
1 | Ac-RRQSWRRASMKETNRRKSLHPIAW-NH2 [Dsn1^92–113] | 44 | high-micromolar affinity |  | 
2 | CENP-C^1–71: CENP-C residues 1–71 fused to a C-terminal maltose-binding protein (MBP) tag, expressed in E. coli |  |  | only partially bound | binding of almost all CENP-C
